From US12030904B2 (priority 2020, dated 2024)
Like-named read-outs stand apart in the source and are kept apart here.

What was measured:
[1] = tested on: Recombinant Respiratory Syncytial virus strain A2 containing the firefly luciferase reporter (RSV-Fluc); assay: microbe, parasite or virus in culture; format: cell-based; settings: human respiratory syncytial virus, NHBE
SARS-CoV-2 = assay: microbe, parasite or virus in culture; format: cell-based
[2] = A549 cytotoxicity analysis (CellTiter-Glo); format: cell-based; settings: human, A549 cells
Procedure: The cytotoxicity of compounds was determined in A549 cells in the following manner. Compounds (40 nL) were spotted onto 384-well Grenier plates prior to seeding 5000 A549 cells/well in a volume of 40 μL culture medium. The plates were incubated at 37° C. for 48 hours with 5% CO2. On day 2, 40 μL of CellTiter-Glo (Promega) was added and mixed 5 times. Plates were read for luminescence on an Envision (PerkinElmer) and the CC50 (compound concentration for reducing 50% of luminescence signal as a measure of cell viability) were calculated using a nonlinear regression model (four parameters). Two experiments were performed with technical duplicates.

MT4 cytotoxicity (CC50) = settings: human, MT4 cells
[3] = 72 h, read-out: RSV-Fluc EC50 (NHBE), NHBE cells, three days, Table 1
[4] = Severe acute respiratory syndrome coronavirus 2, 48 h, read-out: SARS-CoV-2 EC50
[5] = 72 h, read-out: RSV-Fluc EC50 (NHBE), NHBE cells, three days, Table 2
[6] = Severe acute respiratory syndrome coronavirus 2, Table 3, read-out: SARS-CoV-2 EC50
[7] = Severe acute respiratory syndrome coronavirus 2, read-out: SARS EC50

SMILES | EC50 [1, 3] [nM] | EC50 (SARS-CoV-2; [4]) [nM] | CC50 at 48 h ([2]; 48 hours, Table 1) [nM] | CC50 (MT4 cytotoxicity (CC50); MT4 CC50, Table 1a) [nM] | EC50 [1, 5] [nM] | EC50 ([1]; read-out: RSV EC50, Table 2a) [nM] | EC50 (SARS-CoV-2; [6]) [nM] | EC50 (SARS-CoV-2; [7]) [nM] | CC50 at 48 h ([2]; Table 3) [nM] | CC50 (MT4 cytotoxicity (CC50); MT4 CC50, Table 2a) [nM]
CCCCCCCCCCCCCCCCCCOC[C@H](COP(=O)(O)OC[C@H]1O[C@@](C#N)(c2ccc3c(N)ncnn23)[C@H](OC(=O)C(C)C)[C@@H]1OC(=O)C(C)C)OCc1ccccc1 [Example 13, (2R,3R,4R,5R)-2-(4-aminopyrrolo[2,1-f][1,2,4]triazin-7-yl)-5-(((((R)-2-(benzyloxy)-3-(octadecyloxy)propoxy)(hydroxy)phosphoryl)oxy)methyl)-2-cyanotetrahydrofuran-3,4-diyl bis(2-methylpropanoate)] | 2200 | > 10000 | 15000 | 32800 | – | – | – | – | – | –
CCCCCCCCCCCCCCCCCCOC[C@H](COP(=O)(O)OC[C@H]1O[C@@](C#N)(c2ccc3c(N)ncnn23)[C@H](O)[C@@H]1O)OCc1ccc(F)c(F)c1 [Example 14, ((2R,3S,4R,5R)-5-(4-aminopyrrolo[2,1-f][1,2,4]triazin-7-yl)-5-cyano-3,4-dihydroxytetrahydrofuran-2-yl)methyl ((R)-2-((3,4-difluorobenzyl)oxy)-3-(octadecyloxy)propyl) hydrogen phosphate] | 90 | 320 | 13000 | 7190 | – | – | – | – | – | –
CCCCCCCCCCCCCCCCCCOC[C@H](COP(=O)(O)OC[C@H]1O[C@@](C#N)(c2ccc3c(N)ncnn23)[C@H](O)[C@@H]1O)OCc1cc(F)cc(C#N)c1 [Example 16, [(2R,3S,4R,5R)-5-(4-aminopyrrolo[2,1-f][1,2,4]triazin-7-yl)-5-cyano-3,4-dihydroxy-tetrahydrofuran-2-yl]methyl [(2R)-2-[(3-cyano-5-fluoro-phenyl)methoxy]-3-octadecoxy-propyl] hydrogen phosphate] | 60 | 220 | 18000 | 433 | – | – | – | – | – | –
CCCCCCCCCCCCCCCCCCOC[C@H](COP(=O)(O)OC[C@H]1O[C@@](C#N)(c2ccc3c(N)ncnn23)[C@H](O)[C@@H]1O)OCc1ccc(C(F)(F)F)cc1 [Example 11, ((2R,3S,4R,5R)-5-(4-aminopyrrolo[2,1-f][1,2,4]triazin-7-yl)-5-cyano-3,4-dihydroxytetrahydrofuran-2-yl)methyl ((R)-3-(octadecyloxy)-2-((4-(trifluoromethyl)benzyl)oxy)propyl) hydrogen phosphate] | 60 | 350 | > 50000 | 14500 | – | – | – | – | – | –
CCCCCCCCCCCCCCCCCCOC[C@H](COP(=O)(O)OC[C@H]1O[C@@](C#N)(c2ccc3c(N)ncnn23)[C@H](O)[C@@H]1O)OCc1ccc(C#N)cc1 [Example 9, ((2R,3S,4R,5R)-5-(4-aminopyrrolo[2,1-f][1,2,4]triazin-7-yl)-5-cyano-3,4-dihydroxytetrahydrofuran-2-yl)methyl ((R)-2-((4-cyanobenzyl)oxy)-3-(octadecyloxy)propyl) hydrogen phosphate] | 50 | 270 | 30000 | 1430 | – | – | – | – | – | –
CCCCCCCCCCCCCCCCCCCCOC[C@H](COP(=O)(O)OC[C@H]1O[C@@](C#N)(c2ccc3c(N)ncnn23)[C@H](O)[C@@H]1O)OCc1ccccc1 [Example 8, ((2R,3S,4R,5R)-5-(4-aminopyrrolo[2,1-f][1,2,4]triazin-7-yl)-5-cyano-3,4-dihydroxytetrahydrofuran-2-yl)methyl ((R)-2-(benzyloxy)-3-(icosyloxy)propyl) hydrogen phosphate] | 110 | 800 | 23000 | 33400 | – | – | – | – | – | –
CCCCCCCC/C=C\CCCCCCCCOC[C@H](COP(=O)(O)OC[C@H]1O[C@@](C#N)(c2ccc3c(N)ncnn23)[C@H](O)[C@@H]1O)OCc1cc(F)cc(C#N)c1 [Example 69, ((2R,3S,4R,5R)-5-(4-aminopyrrolo[2,1-f][1,2,4]triazin-7-yl)-5-cyano-3,4-dihydroxytetrahydrofuran-2-yl)methyl ((R)-2-((3-cyano-5-fluorobenzyl)oxy)-3-(((Z)-octadec-9-en-1-yl)oxy)propyl) hydrogen phosphate] | – | – | – | – | 24 | 23 | 150 | 150 | 860 | 730
CCCCCCCCCCCCCCCCCCOC[C@H](COP(=O)(O)OC[C@H]1O[C@@](C#N)(c2ccc3c(N)ncnn23)[C@H](O)[C@@H]1O)Oc1ccc(C#N)c(OC(C)C)c1 [Example 72, ((2R,3S,4R,5R)-5-(4-aminopyrrolo[2,1-f][1,2,4]triazin-7-yl)-5-cyano-3,4-dihydroxytetrahydrofuran-2-yl)methyl ((R)-2-(4-cyano-3-isopropoxyphenoxy)-3-(octadecyloxy)propyl) hydrogen phosphate] | – | – | – | – | 8 | 17 | – | 8350 | 240 | 279
CCCCCCCCCCCCCCCCOC[C@H](COP(=O)(O)OC[C@H]1O[C@@](C#N)(c2ccc3c(N)ncnn23)[C@H](O)[C@@H]1O)OCc1ccccc1 [Example 5, ((2R,3S,4R,5R)-5-(4-aminopyrrolo[2,1-f][1,2,4]triazin-7-yl)-5-cyano-3,4-dihydroxytetrahydrofuran-2-yl)methyl ((R)-2-(benzyloxy)-3-(hexadecyloxy)propyl) hydrogen phosphate] | 50 | 480 | 19000 | 6290 | – | – | – | – | – | –
CCCCCCCCCCCCCCCCCCOC[C@H](COP(=O)(O)OC[C@H]1O[C@@](C#N)(c2ccc3c(N)ncnn23)[C@H](O)[C@@H]1OC(=O)C(C)C)OCc1ccccc1 [Example 12, (2R,3S,4R,5R)-5-(4-aminopyrrolo[2,1-f][1,2,4]triazin-7-yl)-2-(((((R)-2-(benzyloxy)-3-(octadecyloxy)propoxy)(hydroxy)phosphoryl)oxy)methyl)-5-cyano-4-hydroxytetrahydrofuran-3-yl isobutyrate] | 260 | 3200 | 50000 | 50000 | – | – | – | – | – | –
CCCCCCCCCCCCCCCCCCOC[C@H](COP(=O)(O)OC[C@H]1O[C@@](C#N)(c2ccc3c(N)ncnn23)[C@H](O)[C@@H]1O)OCc1ccccc1 [Example 1, ((2R,3S,4R,5R)-5-(4-aminopyrrolo[2,1-f][1,2,4]triazin-7-yl)-5-cyano-3,4-dihydroxytetrahydrofuran-2-yl)methyl ((R)-2-(benzyloxy)-3-(octadecyloxy)propyl) hydrogen phosphate] | 90 | 940 | 20000 | 3960 | – | – | – | – | – | –
CCCCCCCCCCCCCCCCOC[C@H](COP(=O)(O)OC[C@H]1O[C@@](C#N)(c2ccc3c(N)ncnn23)[C@H](O)[C@@H]1O)OCc1cc(F)cc(C#N)c1 [Example 71, ((2R,3S,4R,5R)-5-(4-aminopyrrolo[2,1-f][1,2,4]triazin-7-yl)-5-cyano-3,4-dihydroxytetrahydrofuran-2-yl)methyl ((R)-2-((3-cyano-5-fluorobenzyl)oxy)-3-(hexadecyloxy)propyl) hydrogen phosphate] | – | – | – | – | 30 | 3 | 130 | 130 | 370 | 404
CCCCCCCCCCCCCCCCCCOC[C@H](COP(=O)(O)OC[C@H]1O[C@@](C#N)(c2ccc3c(N)ncnn23)[C@H](O)[C@@H]1O)OCc1ccc(-c2ccccc2)cc1 [Example 2, (R)-2-([1,1′-biphenyl]-4-ylmethoxy)-3-(octadecyloxy)propyl (((2R,3S,4R,5R)-5-(4-aminopyrrolo[2,1-f][1,2,4]triazin-7-yl)-5-cyano-3,4-dihydroxytetrahydrofuran-2-yl)methyl) hydrogen phosphate] | 350 | 430 | > 50000 | 14700 | – | – | – | – | – | –
CCCCCCCCCCCCCCCCCCOC[C@H](COP(=O)(O)OC[C@H]1O[C@@](C#N)(c2ccc3c(N)ncnn23)[C@H](O)[C@@H]1O)OCc1ccc2ccccc2c1 [Example 4, ((2R,3S,4R,5R)-5-(4-aminopyrrolo[2,1-f][1,2,4]triazin-7-yl)-5-cyano-3,4-dihydroxytetrahydrofuran-2-yl)methyl ((R)-2-(naphthalen-2-ylmethoxy)-3-(octadecyloxy)propyl) hydrogen phosphate] | 60 | 340 | 17000 | 4170 | – | – | – | – | – | –
CCCCCCCCCCCCCCCCCCOC[C@H](COP(=O)(O)OC[C@H]1O[C@@](C#N)(c2ccc3c(N)ncnn23)[C@H](O)[C@@H]1O)OCc1cc(F)cc(F)c1 [Example 15, [(2R,3S,4R,5R)-5-(4-aminopyrrolo[2,1-f][1,2,4]triazin-7-yl)-5-cyano-3,4-dihydroxy-tetrahydrofuran-2-yl]methyl [(2R)-2-[(3,5-difluorophenyl)methoxy]-3-octadecoxy-propyl] hydrogen phosphate] | 80 | 260 | 13000 | 3310 | – | – | – | – | – | –
CCCCCCCCCCCCCCCCCCOC[C@H](COP(=O)(O)OC[C@H]1O[C@@](C#N)(c2ccc3c(N)ncnn23)[C@H](O)[C@@H]1O)OCc1ccc(OC)cc1 [Example 10, ((2R,3S,4R,5R)-5-(4-aminopyrrolo[2,1-f][1,2,4]triazin-7-yl)-5-cyano-3,4-dihydroxytetrahydrofuran-2-yl)methyl ((R)-2-((4-methoxybenzyl)oxy)-3-(octadecyloxy)propyl) hydrogen phosphate] | 60 | 300 | 20000 | 3430 | – | – | – | – | – | –
